Literature values as cited in article PMC11481577, “Allosteric coupling of substrate binding and proton translocation in MmpL3 transporter from Mycobacterium tuberculosis” (mBio, 2024).

Target: MmpL3
Settings: previously measured; read-out: affinity to MmpL3; cited from earlier work

Substance	Kd [µM]
phosphatidylethanolamine [PE]	19.5 ± 6.3
trehalose monomycolates [TMM]	3.7 ± 1.3
